From the NIST ThermoML archive (doi:10.1016/j.tca.2004.07.014)

What was measured:
[1] = xn = mol fraction of the nth substance listed; settings: 303.15 K, 101.3 kPa, Liquid; for speed of sound: Linear variable-path acoustic interferometer
[2] = 303.15 K, 101.3 kPa, Liquid; for speed of sound: Linear variable-path acoustic interferometer

CCOC(=O)C(Br)C(=O)OCC [diethyl bromomalonate] + ClC(Cl)Cl
[1]
Settings | mass density [kg/m3] | speed of sound [m/s] | viscosity [mPa·s]
x1 = 0.098 | 1460.41 | 989 | 0.709
x1 = 0.1971 | 1450.47 | 1010 | 0.941
x1 = 0.296 | 1441.28 | 1032 | 1.2
x1 = 0.4033 | 1432.36 | 1054 | 1.507
x1 = 0.5045 | 1424.91 | 1075 | 1.84
x1 = 0.5919 | 1419.12 | 1092 | 2.141
x1 = 0.6911 | 1413.32 | 1112 | 2.501
x1 = 0.7991 | 1407.82 | 1131 | 2.899
x1 = 0.8997 | 1403.21 | 1149 | 3.253

CCOC(=O)CC(=O)OCC [diethyl 1,3-propanedioate] + ClC(Cl)Cl
[1]
Settings | mass density [kg/m3] | speed of sound [m/s] | viscosity [mPa·s]
x1 = 0.0968 | 1399.36 | 999 | 0.533
x1 = 0.2004 | 1334.53 | 1031 | 0.568
x1 = 0.3089 | 1276.4 | 1065 | 0.622
x1 = 0.4122 | 1228.62 | 1097 | 0.692
x1 = 0.5385 | 1178.25 | 1136 | 0.808
x1 = 0.6125 | 1151.99 | 1159 | 0.891
x1 = 0.7225 | 1116.7 | 1192 | 1.05
x1 = 0.8156 | 1089.85 | 1220 | 1.226
x1 = 0.9071 | 1065.78 | 1246 | 1.444

ClC(Cl)(Cl)Cl [tetrachloromethane]
[2]
Settings | mass density [kg/m3] | speed of sound [m/s] | viscosity [mPa·s]
– | 1574.82 | 905 | 0.844

CCOC(=O)CC(=O)OCC [diethyl 1,3-propanedioate]
[2]
Settings | mass density [kg/m3] | speed of sound [m/s]
– | 1043.23 | 1274

Settings | viscosity [mPa·s]
[2], Capillary tube (Ostwald / Ubbelohde) method | 1.721

ClC(Cl)Cl [trichloromethane] + CCOC(=O)CCl
[1], x2 = 0
Settings | mass density [kg/m3] | speed of sound [m/s] | viscosity [mPa·s]
– | 1470.59 | 967 | 0.512

CCOC(=O)CCl [ethyl chloroethanoate] + ClC(Cl)Cl
[1]
Settings | mass density [kg/m3] | speed of sound [m/s] | viscosity [mPa·s]
x1 = 0.0989 | 1429.89 | 990 | 0.617
x1 = 0.1945 | 1392.15 | 1014 | 0.687
x1 = 0.2954 | 1354.22 | 1038 | 0.759
x1 = 0.3905 | 1320.14 | 1062 | 0.806
x1 = 0.5048 | 1281.24 | 1091 | 0.852
x1 = 0.6012 | 1250.32 | 1115 | 0.9
x1 = 0.6875 | 1223.93 | 1137 | 0.943
x1 = 0.7658 | 1201.01 | 1159 | 0.989
x1 = 0.8992 | 1164.5 | 1198 | 1.114

ClC(Cl)Cl [trichloromethane]
[2]
Settings | mass density [kg/m3] | speed of sound [m/s]
– | 1470.59 | 967

Settings | viscosity [mPa·s]
[2], Capillary tube (Ostwald / Ubbelohde) method | 0.512

CCOC(=O)CCl [ethyl chloroethanoate] + ClC(Cl)(Cl)Cl
[1]
Settings | mass density [kg/m3] | speed of sound [m/s] | viscosity [mPa·s]
x1 = 0.095 | 1530.01 | 933 | 0.853
x1 = 0.1992 | 1481.59 | 964 | 0.862
x1 = 0.298 | 1436.61 | 994 | 0.862
x1 = 0.3972 | 1392.26 | 1025 | 0.87
x1 = 0.5 | 1347.02 | 1058 | 0.891
x1 = 0.5978 | 1304.82 | 1089 | 0.928
x1 = 0.6984 | 1262.23 | 1123 | 0.967
x1 = 0.8044 | 1218.14 | 1158 | 1.021
x1 = 0.8978 | 1180.11 | 1191 | 1.113
x1 = 1 | 1139.18 | 1227 | 1.275

CCOC(=O)CC(=O)OCC [diethyl 1,3-propanedioate] + ClC(Cl)(Cl)Cl
[1]
Settings | mass density [kg/m3] | speed of sound [m/s] | viscosity [mPa·s]
x1 = 0.1173 | 1480.36 | 949 | 0.857
x1 = 0.2031 | 1419.02 | 982 | 0.877
x1 = 0.2999 | 1356.61 | 1018 | 0.918
x1 = 0.4623 | 1265.6 | 1080 | 1.002
x1 = 0.5648 | 1215.59 | 1120 | 1.084
x1 = 0.6579 | 1174.08 | 1154 | 1.167
x1 = 0.7478 | 1136.91 | 1185 | 1.272
x1 = 0.8311 | 1104.69 | 1216 | 1.388
x1 = 0.9189 | 1072.19 | 1247 | 1.544
x1 = 1 | 1043.23 | 1274 | 1.721

CCOC(=O)C(Br)C(=O)OCC [diethyl bromomalonate] + ClC(Cl)(Cl)Cl
[1]
Settings | mass density [kg/m3] | speed of sound [m/s] | viscosity [mPa·s]
x1 = 0.1001 | 1552.35 | 944 | 1.012
x1 = 0.1992 | 1531.61 | 980 | 1.207
x1 = 0.3007 | 1512.21 | 1012 | 1.433
x1 = 0.4088 | 1492.99 | 1047 | 1.705
x1 = 0.4988 | 1478.09 | 1072 | 1.948
x1 = 0.5999 | 1462.1 | 1098 | 2.255
x1 = 0.699 | 1446.77 | 1121 | 2.571
x1 = 0.8988 | 1415.72 | 1155 | 3.25
x1 = 1 | 1399.18 | 1166 | 3.614

CCOC(=O)C(Br)C(=O)OCC [diethyl bromomalonate]
[2]
Settings | mass density [kg/m3] | speed of sound [m/s]
– | 1399.18 | 1166

Settings | viscosity [mPa·s]
[2], Capillary tube (Ostwald / Ubbelohde) method | 3.614

ClC(Cl)(Cl)Cl [tetrachloromethane] + CCOC(=O)CCl
[1], x2 = 0
Settings | mass density [kg/m3] | speed of sound [m/s] | viscosity [mPa·s]
– | 1574.82 | 905 | 0.844

CCOC(=O)CCl [ethyl chloroethanoate]
[2]
Settings | mass density [kg/m3] | speed of sound [m/s] | viscosity [mPa·s]
– | 1139.18 | 1227 | 1.275
